From ChEMBL document CHEMBL4507258 (2021)

How the values were obtained:
Conditions in all cases: Compound concentration 1000.0 nM
[1] = target: Mitogen-activated protein kinase kinase kinase 9 (Homo sapiens) (UniProt P80192)
[2] = target: Ephrin type-A receptor 4 (Homo sapiens) (UniProt P54764)
[3] = target: Tyrosine-protein kinase Fes/Fps (Homo sapiens) (UniProt P07332)
[4] = target: Cyclin-dependent kinase-like 2 (Homo sapiens) (UniProt Q92772)
[5] = target: Tyrosine-protein kinase Mer (Homo sapiens) (UniProt Q12866)
[6] = target: Insulin-like growth factor 1 receptor (Homo sapiens) (UniProt P08069)
[7] = target: Ephrin type-A receptor 7 (Homo sapiens) (UniProt Q15375)
[8] = target: Hepatocyte growth factor receptor (Homo sapiens) (UniProt P08581)
[9] = target: Transient receptor potential cation channel subfamily M member 6 (Homo sapiens) (UniProt Q9BX84)
[10] = target: Mitogen-activated protein kinase kinase kinase kinase 3 (Homo sapiens) (UniProt Q8IVH8)
[11] = target: Cyclin-dependent kinase 2 (Homo sapiens) (UniProt P24941)
[12] = target: Serine/threonine-protein kinase pim-3 (Homo sapiens) (UniProt Q86V86)
[13] = target: Platelet-derived growth factor receptor alpha (Homo sapiens) (UniProt P16234)
[14] = target: Serine/threonine-protein kinase 4 (Homo sapiens) (UniProt Q13043)
[15] = target: Cyclin-dependent kinase-like 3 (Homo sapiens) (UniProt Q8IVW4)
[16] = target: Ephrin type-A receptor 2 (Homo sapiens) (UniProt P29317)
[17] = target: NUAK family SNF1-like kinase 2 (Homo sapiens) (UniProt Q9H093)
[18] = system: Tyrosine-protein kinase ABL1 (Homo sapiens), P00519 [F317I]
[19] = target: Dual specificity mitogen-activated protein kinase kinase 6 (Homo sapiens) (UniProt P52564)
[20] = target: Serine/threonine-protein kinase RIO1 (Homo sapiens) (UniProt Q9BRS2)
[21] = system: Epidermal growth factor receptor (Homo sapiens), P00533 [UNDEFINED MUTATION]
[22] = target: TGF-beta receptor type-1 (Homo sapiens) (UniProt P36897)
[23] = target: Calcium/calmodulin-dependent protein kinase type 1 (Homo sapiens) (UniProt Q14012)
[24] = target: Myosin light chain kinase 2, skeletal/cardiac muscle (Homo sapiens) (UniProt Q9H1R3)
[25] = system: Phosphatidylinositol 4,5-bisphosphate 3-kinase catalytic subunit alpha isoform (Homo sapiens), P42336 [H1047Y]
[26] = target: Casein kinase I isoform gamma-2 (Homo sapiens) (UniProt P78368)
[27] = system: Receptor-type tyrosine-protein kinase FLT3 (Homo sapiens), P36888 [D835H]
[28] = target: Testis-specific serine/threonine-protein kinase 3 (Homo sapiens) (UniProt Q96PN8)
[29] = target: Serine/threonine-protein kinase 3 (Homo sapiens) (UniProt Q13188)
[30] = target: Serine/threonine-protein kinase ULK2 (Homo sapiens) (UniProt Q8IYT8)
[31] = target: Rhodopsin kinase GRK1 (Homo sapiens) (UniProt Q15835)
[32] = target: Receptor-type tyrosine-protein kinase FLT3 (Homo sapiens) (UniProt P36888)
[33] = target: Tyrosine-protein kinase receptor TYRO3 (Homo sapiens) (UniProt Q06418)
[34] = target: Tyrosine-protein kinase receptor Tie-1 (Homo sapiens) (UniProt P35590)
[35] = target: cAMP-dependent protein kinase catalytic subunit PRKX (Homo sapiens) (UniProt P51817)
[36] = target: Serine/threonine-protein kinase ULK1 (Homo sapiens) (UniProt O75385)
[37] = target: Serine/threonine-protein kinase PLK2 (Homo sapiens) (UniProt Q9NYY3)
[38] = target: Ephrin type-A receptor 6 (Homo sapiens) (UniProt Q9UF33)
[39] = target: Serine/threonine-protein kinase SIK3 (Homo sapiens) (UniProt Q9Y2K2)
[40] = target: Rho-associated protein kinase 1 (Homo sapiens) (UniProt Q13464)
[41] = system: Receptor-type tyrosine-protein kinase FLT3 (Homo sapiens), P36888 [D835V]
[42] = target: Rho-associated protein kinase 2 (Homo sapiens) (UniProt O75116)
[43] = target: Leukocyte tyrosine kinase receptor (Homo sapiens) (UniProt P29376)
[44] = target: Wee1-like protein kinase 2 (Homo sapiens) (UniProt P0C1S8)
[45] = target: Phosphatidylinositol 4-kinase beta (Homo sapiens) (UniProt Q9UBF8)

Testis-specific serine/threonine-protein kinase 3 (Homo sapiens), sequence (Q96PN8 whole entry): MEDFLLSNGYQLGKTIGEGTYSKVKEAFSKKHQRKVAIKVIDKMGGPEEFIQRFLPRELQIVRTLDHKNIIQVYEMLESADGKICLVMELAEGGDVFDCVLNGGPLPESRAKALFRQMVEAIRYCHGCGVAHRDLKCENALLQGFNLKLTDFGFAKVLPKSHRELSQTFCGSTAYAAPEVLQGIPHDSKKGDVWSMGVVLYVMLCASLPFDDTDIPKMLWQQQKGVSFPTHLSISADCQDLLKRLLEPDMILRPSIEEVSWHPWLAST
Rhodopsin kinase GRK1 (Homo sapiens), sequence (Q15835 whole entry): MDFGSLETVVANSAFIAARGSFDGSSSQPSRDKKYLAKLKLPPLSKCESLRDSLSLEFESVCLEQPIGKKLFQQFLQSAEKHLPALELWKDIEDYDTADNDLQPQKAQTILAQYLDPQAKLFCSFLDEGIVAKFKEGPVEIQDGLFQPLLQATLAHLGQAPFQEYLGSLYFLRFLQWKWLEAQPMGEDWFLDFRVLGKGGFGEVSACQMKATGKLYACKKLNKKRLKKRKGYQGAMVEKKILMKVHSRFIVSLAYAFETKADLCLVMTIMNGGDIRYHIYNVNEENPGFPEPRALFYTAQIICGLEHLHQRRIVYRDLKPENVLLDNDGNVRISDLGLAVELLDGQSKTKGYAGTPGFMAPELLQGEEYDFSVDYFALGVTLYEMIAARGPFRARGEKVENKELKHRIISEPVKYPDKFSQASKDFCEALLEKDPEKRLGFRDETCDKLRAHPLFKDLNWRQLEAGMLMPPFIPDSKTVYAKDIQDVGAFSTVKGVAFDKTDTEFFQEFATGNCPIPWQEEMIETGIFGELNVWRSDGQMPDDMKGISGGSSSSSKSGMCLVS
Transient receptor potential cation channel subfamily M member 6 (Homo sapiens), sequence (Q9BX84 whole entry): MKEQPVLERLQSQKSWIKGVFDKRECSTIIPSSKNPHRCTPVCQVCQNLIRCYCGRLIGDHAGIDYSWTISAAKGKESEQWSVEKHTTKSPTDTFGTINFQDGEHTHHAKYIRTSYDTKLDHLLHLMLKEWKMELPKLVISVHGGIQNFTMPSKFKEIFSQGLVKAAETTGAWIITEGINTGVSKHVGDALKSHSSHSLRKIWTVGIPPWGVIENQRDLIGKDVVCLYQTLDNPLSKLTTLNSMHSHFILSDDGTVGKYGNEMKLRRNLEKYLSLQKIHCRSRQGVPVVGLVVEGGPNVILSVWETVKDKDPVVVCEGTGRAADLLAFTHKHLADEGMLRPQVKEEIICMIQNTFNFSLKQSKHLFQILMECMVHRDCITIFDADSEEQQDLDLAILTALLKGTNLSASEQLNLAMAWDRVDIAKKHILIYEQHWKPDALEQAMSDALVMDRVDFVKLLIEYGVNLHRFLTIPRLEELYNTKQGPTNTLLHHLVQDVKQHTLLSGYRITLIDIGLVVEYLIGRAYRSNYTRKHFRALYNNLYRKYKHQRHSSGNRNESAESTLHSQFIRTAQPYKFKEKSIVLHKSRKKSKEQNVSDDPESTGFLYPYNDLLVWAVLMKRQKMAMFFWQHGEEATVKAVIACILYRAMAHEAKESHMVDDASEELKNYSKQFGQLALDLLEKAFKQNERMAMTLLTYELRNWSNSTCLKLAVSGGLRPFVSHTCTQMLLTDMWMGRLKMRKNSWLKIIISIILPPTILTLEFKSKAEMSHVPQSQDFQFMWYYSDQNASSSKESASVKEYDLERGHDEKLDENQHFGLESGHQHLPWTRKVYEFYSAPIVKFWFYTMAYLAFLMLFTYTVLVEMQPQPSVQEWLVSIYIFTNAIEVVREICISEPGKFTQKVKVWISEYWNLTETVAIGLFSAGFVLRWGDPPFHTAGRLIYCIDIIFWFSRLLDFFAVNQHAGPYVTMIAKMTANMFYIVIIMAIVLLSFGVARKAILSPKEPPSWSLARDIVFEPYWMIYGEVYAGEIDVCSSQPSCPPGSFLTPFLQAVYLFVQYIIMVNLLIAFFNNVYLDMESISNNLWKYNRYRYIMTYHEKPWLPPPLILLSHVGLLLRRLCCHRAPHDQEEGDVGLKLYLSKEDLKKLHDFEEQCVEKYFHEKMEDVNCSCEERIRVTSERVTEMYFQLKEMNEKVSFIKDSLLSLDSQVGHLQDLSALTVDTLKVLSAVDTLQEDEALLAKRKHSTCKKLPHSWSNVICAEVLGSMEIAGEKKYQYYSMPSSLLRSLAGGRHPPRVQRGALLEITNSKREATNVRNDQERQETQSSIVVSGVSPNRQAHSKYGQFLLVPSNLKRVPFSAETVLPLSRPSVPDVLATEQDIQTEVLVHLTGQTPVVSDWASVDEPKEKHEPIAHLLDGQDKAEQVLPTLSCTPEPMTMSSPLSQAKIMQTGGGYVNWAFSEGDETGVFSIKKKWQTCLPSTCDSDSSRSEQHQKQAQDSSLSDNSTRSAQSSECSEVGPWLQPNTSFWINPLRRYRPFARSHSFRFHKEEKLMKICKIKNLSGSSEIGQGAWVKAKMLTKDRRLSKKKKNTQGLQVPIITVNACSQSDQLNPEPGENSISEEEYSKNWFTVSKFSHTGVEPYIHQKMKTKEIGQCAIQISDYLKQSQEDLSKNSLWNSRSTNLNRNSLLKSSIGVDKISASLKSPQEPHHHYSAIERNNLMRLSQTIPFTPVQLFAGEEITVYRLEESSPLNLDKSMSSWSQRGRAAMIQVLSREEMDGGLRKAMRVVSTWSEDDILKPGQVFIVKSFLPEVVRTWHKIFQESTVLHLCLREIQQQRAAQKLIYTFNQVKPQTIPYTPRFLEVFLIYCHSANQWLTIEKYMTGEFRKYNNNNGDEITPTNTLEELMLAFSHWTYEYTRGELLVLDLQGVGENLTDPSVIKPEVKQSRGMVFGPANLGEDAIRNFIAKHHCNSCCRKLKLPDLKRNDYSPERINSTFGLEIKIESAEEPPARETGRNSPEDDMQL
Serine/threonine-protein kinase SIK3 (Homo sapiens), sequence (Q9Y2K2 whole entry, looked up): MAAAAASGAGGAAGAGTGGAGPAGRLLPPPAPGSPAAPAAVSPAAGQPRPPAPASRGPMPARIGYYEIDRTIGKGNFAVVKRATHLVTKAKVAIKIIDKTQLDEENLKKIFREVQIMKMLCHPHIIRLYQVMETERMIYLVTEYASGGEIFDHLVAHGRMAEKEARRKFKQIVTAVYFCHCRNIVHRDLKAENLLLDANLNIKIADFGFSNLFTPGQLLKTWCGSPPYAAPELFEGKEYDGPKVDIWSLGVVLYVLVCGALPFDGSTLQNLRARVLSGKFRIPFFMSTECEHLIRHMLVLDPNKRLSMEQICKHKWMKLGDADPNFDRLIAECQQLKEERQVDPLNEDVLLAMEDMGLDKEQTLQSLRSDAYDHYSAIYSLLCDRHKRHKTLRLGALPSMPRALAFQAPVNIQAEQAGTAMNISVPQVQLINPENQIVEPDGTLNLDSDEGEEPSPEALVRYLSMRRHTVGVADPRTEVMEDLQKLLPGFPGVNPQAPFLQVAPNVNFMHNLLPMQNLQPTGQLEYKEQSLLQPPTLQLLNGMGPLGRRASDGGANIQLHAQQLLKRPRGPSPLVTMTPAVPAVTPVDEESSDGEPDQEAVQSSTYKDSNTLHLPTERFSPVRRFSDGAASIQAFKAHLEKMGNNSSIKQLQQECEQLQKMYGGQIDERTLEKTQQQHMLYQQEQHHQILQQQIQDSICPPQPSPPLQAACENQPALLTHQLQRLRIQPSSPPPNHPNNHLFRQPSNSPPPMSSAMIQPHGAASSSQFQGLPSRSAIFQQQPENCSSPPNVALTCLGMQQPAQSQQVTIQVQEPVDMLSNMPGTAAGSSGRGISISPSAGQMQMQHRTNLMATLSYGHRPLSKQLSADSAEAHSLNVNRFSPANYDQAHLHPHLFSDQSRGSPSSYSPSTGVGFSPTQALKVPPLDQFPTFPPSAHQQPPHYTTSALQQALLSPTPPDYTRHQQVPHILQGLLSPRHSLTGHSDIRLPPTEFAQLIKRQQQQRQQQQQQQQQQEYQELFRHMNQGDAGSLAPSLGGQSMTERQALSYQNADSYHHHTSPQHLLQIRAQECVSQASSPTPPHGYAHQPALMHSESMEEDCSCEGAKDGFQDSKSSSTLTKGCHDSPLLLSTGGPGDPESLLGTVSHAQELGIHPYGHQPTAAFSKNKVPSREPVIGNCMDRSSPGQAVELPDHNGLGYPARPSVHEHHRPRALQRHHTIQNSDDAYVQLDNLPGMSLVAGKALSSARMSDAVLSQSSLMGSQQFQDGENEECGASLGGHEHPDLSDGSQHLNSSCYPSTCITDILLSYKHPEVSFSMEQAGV
Mitogen-activated protein kinase kinase kinase kinase 3 (Homo sapiens), sequence (Q8IVH8 whole entry): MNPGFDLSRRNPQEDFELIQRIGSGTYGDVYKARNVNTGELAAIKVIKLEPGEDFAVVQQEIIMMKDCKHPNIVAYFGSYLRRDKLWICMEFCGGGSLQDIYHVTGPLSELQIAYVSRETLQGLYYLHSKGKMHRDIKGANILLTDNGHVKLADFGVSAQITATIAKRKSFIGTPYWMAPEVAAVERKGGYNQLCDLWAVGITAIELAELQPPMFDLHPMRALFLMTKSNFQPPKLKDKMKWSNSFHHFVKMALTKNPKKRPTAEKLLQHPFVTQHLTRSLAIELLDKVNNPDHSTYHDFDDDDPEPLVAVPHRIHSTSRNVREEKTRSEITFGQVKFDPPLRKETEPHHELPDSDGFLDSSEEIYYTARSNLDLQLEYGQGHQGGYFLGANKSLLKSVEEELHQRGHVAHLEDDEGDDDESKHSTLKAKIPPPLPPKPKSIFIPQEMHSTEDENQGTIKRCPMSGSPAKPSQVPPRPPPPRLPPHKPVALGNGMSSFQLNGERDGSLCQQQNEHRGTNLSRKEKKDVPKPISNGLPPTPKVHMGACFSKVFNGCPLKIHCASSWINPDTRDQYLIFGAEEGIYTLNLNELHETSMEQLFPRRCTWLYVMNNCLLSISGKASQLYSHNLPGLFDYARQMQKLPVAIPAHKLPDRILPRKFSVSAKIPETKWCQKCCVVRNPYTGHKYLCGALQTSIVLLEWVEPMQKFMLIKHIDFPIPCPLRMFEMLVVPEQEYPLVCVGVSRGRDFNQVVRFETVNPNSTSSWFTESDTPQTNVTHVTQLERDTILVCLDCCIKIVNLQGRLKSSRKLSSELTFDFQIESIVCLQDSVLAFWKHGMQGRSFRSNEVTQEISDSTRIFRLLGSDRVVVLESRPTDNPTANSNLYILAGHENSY

For CCCCN(CCCC)C(=O)CN1C[C@H](c2cc(OC)c3c(c2)OCO3)[C@@H](C(=O)O)[C@@H]1CC(C)(C)CCC [ABT-546], the residual activity [1] was 100%, the residual activity [2] was 100% and the residual activity [3] was 100%. It also gave a residual activity [4] of 100%, a residual activity [5] of 100% and a residual activity [6] of 100%. For the same compound, the residual activity [7] was 100%, the residual activity [8] was 100% and the residual activity [9] was 91.6%. The residual activity [10] was 100%, the residual activity [11] was 100% and the residual activity [12] was 100%. The residual activity [13] was 56.1%, the residual activity [14] was 100% and the residual activity [15] was 100%. It also gave a residual activity [16] of 100%, a residual activity [17] of 79.4% and a residual activity [18] of 98.5%. For the same compound, the residual activity [19] was 100%, the residual activity [20] was 65.8% and the residual activity [21] was 100%. The residual activity [22] was 98.6%, the residual activity [23] was 100% and the residual activity [24] was 100%. For the same compound, the residual activity [25] was 100%, the residual activity [26] was 100% and the residual activity [27] was 100%. It also gave a residual activity [28] of 100%, a residual activity [29] of 96.1% and a residual activity [30] of 88.8%. The residual activity [31] was 71.9%, the residual activity [32] was 76% and the residual activity [33] was 100%. For the same compound, the residual activity [34] was 100%, the residual activity [35] was 100% and the residual activity [36] was 79.4%. For the same compound, the residual activity [37] was 67.1%, the residual activity [38] was 100% and the residual activity [39] was 60.5%. The residual activity [40] was 90.4%, the residual activity [41] was 57.4% and the residual activity [42] was 85.2%. The residual activity [43] was 100%, the residual activity [44] was 100% and the residual activity [45] was 80.5%.
CCCCN(CCCC)C(=O)CN1C[C@@H](c2cc(OC)c3c(c2)OCO3)[C@H](C(=O)O)[C@H]1CC(C)(C)CCC [A-545] was tested, and the residual activity [1] was 98.8%, the residual activity [2] was 95.7% and the residual activity [3] was 100%. It also gave a residual activity [4] of 39.2%, a residual activity [5] of 100% and a residual activity [6] of 97%. It also gave a residual activity [7] of 100%, a residual activity [8] of 100% and a residual activity [9] of 90.4%. The residual activity [10] was 94.1%, the residual activity [11] was 100% and the residual activity [12] was 81.5%. For the same compound, the residual activity [13] was 100%, the residual activity [14] was 94.4% and the residual activity [15] was 83.6%. The residual activity [16] was 97.8%, the residual activity [17] was 100% and the residual activity [18] was 100%. For the same compound, the residual activity [19] was 90.8%, the residual activity [20] was 100% and the residual activity [21] was 70.3%. It also gave a residual activity [22] of 100%, a residual activity [23] of 100% and a residual activity [24] of 100%. The residual activity [25] was 92.6%, the residual activity [26] was 96.3% and the residual activity [27] was 100%. For the same compound, the residual activity [28] was 100%, the residual activity [29] was 100% and the residual activity [30] was 89.2%. It also gave a residual activity [31] of 100%, a residual activity [32] of 97.4% and a residual activity [33] of 97.1%. It also gave a residual activity [34] of 94.7%, a residual activity [35] of 87.7% and a residual activity [36] of 89.2%. The residual activity [37] was 98.4%, the residual activity [38] was 100% and the residual activity [39] was 74.8%. It also gave a residual activity [40] of 100%, a residual activity [41] of 78.8% and a residual activity [42] of 100%. It also gave a residual activity [43] of 94.1%, a residual activity [44] of 89.1% and a residual activity [45] of 97.6%.
